Laboratory results: the CheMixHub viscosity set

Assay: xn = mol fraction of the nth substance listed

CCCCCCCO + C1CCCCC1
viscosity [mPa·s]
Settings | 293.15 K | 303.15 K | 313.15 K | 323.15 K
100 kPa, x2 = 0.0812 | 6.08 | 4.38 | 3.22 | 2.46
100 kPa, x2 = 0.1614 | 5.3 | 3.79 | 2.82 | 2.16
100 kPa, x2 = 0.2386 | 4.61 | 3.28 | 2.47 | 1.91
100 kPa, x2 = 0.3496 | 3.76 | 2.69 | 2.05 | 1.59
100 kPa, x2 = 0.4387 | 3.17 | 2.28 | 1.75 | 1.38
100 kPa, x2 = 0.5596 | 2.47 | 1.81 | 1.41 | 1.12
100 kPa, x2 = 0.6491 | 2.02 | 1.52 | 1.18 | 0.95
100 kPa, x2 = 0.7411 | 1.64 | 1.27 | 1 | 0.82
100 kPa, x2 = 0.8503 | 1.28 | 1.03 | 0.83 | 0.7
100 kPa, x2 = 0.9397 | 1.07 | 0.87 | 0.72 | 0.62
101.33 kPa, x1 = 0.0996 | – | 0.9648 | – | –
101.33 kPa, x1 = 0.197 | – | 1.134 | – | –
101.33 kPa, x1 = 0.3024 | – | 1.357 | – | –
101.33 kPa, x1 = 0.3923 | – | 1.585 | – | –
101.33 kPa, x1 = 0.5062 | – | 1.936 | – | –
101.33 kPa, x1 = 0.6052 | – | 2.307 | – | –
101.33 kPa, x1 = 0.7008 | – | 2.749 | – | –
101.33 kPa, x1 = 0.795 | – | 3.258 | – | –
101.33 kPa, x1 = 0.884 | – | 3.84 | – | –

CCCCC + c1ccccc1
298.15 K, 101.33 kPa
Settings | viscosity [mPa·s]
x2 = 0.1622 | 0.241
x2 = 0.3515 | 0.274
x2 = 0.4439 | 0.295
x2 = 0.5608 | 0.328
x2 = 0.6851 | 0.375
x2 = 0.8001 | 0.434
x2 = 0.9056 | 0.505

CCCCC + CCCCCl
298 K, 101.3 kPa
Settings | viscosity [mPa·s]
x1 = 0.1016 | 0.4004
x1 = 0.2097 | 0.372
x1 = 0.2358 | 0.3641
x1 = 0.403 | 0.3274
x1 = 0.5062 | 0.3054
x1 = 0.6042 | 0.287
x1 = 0.7007 | 0.2701
x1 = 0.7975 | 0.2558
x1 = 0.8963 | 0.2391

CCCCCCCCn1cc[n+](C)c1.O=[N+]([O-])[O-] + CCO
Settings | viscosity [mPa·s]
293.15 K, 101 kPa, x2 = 0.128 | 464.3

C[N+](C)(C)CCC[n+]1ccccc1.N#C[N-]C#N.N#C[N-]C#N + CC#N
100 kPa
Settings | viscosity [mPa·s]
293.15 K, x1 = 0.1999 | 10.75
298.15 K, x1 = 0.0999 | 3.205
298.15 K, x1 = 0.1999 | 9.545
298.15 K, x1 = 0.4999 | 98.11
308.15 K, x1 = 0.2998 | 20.95
313.15 K, x1 = 0.2998 | 18.15
318.15 K, x1 = 0.7998 | 117.5

O=C(O)C=Cc1ccccc1 + CCCO
viscosity [mPa·s]
Settings | 308.15 K | 313.15 K | 318.15 K | 323.15 K
101 kPa, x1 = 0.0687 | 2.066 | – | – | –
101 kPa, x1 = 0.0901 | 2.224 | – | – | –
101 kPa, x1 = 0.109 | 2.44 | – | – | –
101.33 kPa, x1 = 0.0687 | 2.066 | 1.836 | 1.629 | 1.452
101.33 kPa, x1 = 0.109 | 2.44 | 2.158 | 1.888 | 1.683
